4 compounds from patent US20230074892A1, “BACTERIOPHAGE COMPOSITIONS AND USES THEREOF” (YALE UNIVERSITY, priority 2019, published 2023) can be followed below.

The subject of assay [1] is P. aeruginosa bacteria. The assay can be described thus: Pyocyanin level in culture supernatant after treatment. To be noted: for bacteria pyocyanin relative to untreated control: single treatment, culture supernatant. Format: cell-based. How it is done: Shown is bacteria pyocyanin relative to untreated control. […] When P. aeruginosa bacteria are exposed to treatments along x-axis, the supernatant of the culture is tested for pyocyanin level.

Assay [2] relates to PA14. Put plainly: Pyocyanin production in bacterial cultures. Format: cell-based, Pseudomonas aeruginosa. To be noted: antibiotic alone. The source says:
Deletion of type-IV pili is shown to attenuate virulence in P. aeruginosa, by impairing pyocyanin production, twitching motility, and biofilm formation (Persat et al. (2015) Proc. Natl. Acad. Sci. 112:7563-7568). Phage TIVP-H6 selects for phage resistance in P. aeruginosa via bacterial alteration or loss of type-IV pili.

Consider `CC1(C)S[C@@H]2[C@H](NC(=O)C(C(=O)O)c3ccccc3)C(=O)N2[C@H]1C(=O)O` (stereo partly drawn) [Carbenicillin], for which the “bacteria pyocyanin relative to untreated control” value in assay [1] was “do not reducte production”. Same read-out and setting: next, `CCn1cc(C(=O)O)c(=O)c2ccc(C)nc21` [Nalidixic acid]: “do not reducte production”. On to `CC[C@H]1OC(=O)[C@H](C)[C@@H](O[C@H]2C[C@@](C)(OC)[C@@H](O)[C@H](C)O2)[C@H](C)[C@@H](O[C@@H]2O[C@H](C)C[C@H](N(C)C)[C@H]2O)[C@](C)(O)C[C@@H](C)C(=O)[C@H](C)[C@@H](O)[C@]1(C)O` [Eythromycin], for which, in assay [1], the “killing of bacteria in the pyocyanin assay” value is “does not kill bacteria in this assay” and the “bacteria pyocyanin relative to untreated control” value was “causes reduced pyocyanin production”.

As to `O=C(O)c1cn(C2CC2)c2cc(N3CCNCC3)c(F)cc2c1=O` [Ciprofloxacin], the “bacteria pyocyanin relative to untreated control” value in assay [1] was “do not reducte production”. Besides, the “effect of antibiotic on pyocyanin production” value in assay [2] is given as “either increased or did not affect”.
